Test results reported in patent publication US20230301299A1, “DISINFECTING FORMULATIONS WITH CARVACROL” (priority 2022, published 2023).

Legend:
[1] = system: Staphylococcus aureus; experiment: minimum inhibitory concentration test (normalized T0, growth after neutralisation); type: cell-based; conditions: for inhibitory effect (normalized T0, lower = increased inhibitory effect): FIG. 1, 0.5% essential oil compound, 5 minute contact time, 24 hour growth
Procedure: Various essential oil compounds were evaluated in a minimum inhibitory concentration test (e.g., against Staphylococcus aureus), to evaluate the inhibiting characteristics of the various tested compounds. […] Each candidate essential oil compound active was tested at 0.5% concentration, with 1% sodium lauryl sulfate (SLS), with a 5 minute contact time. As those of skill in the art will appreciate, the testing was conducted following EPA microbiology efficacy protocols, where the candidate active to be tested is applied to an inoculum (e.g., Staphylococcus aureus), and after a given contact time (e.g., 5 minutes), the active being tested is neutralized (e.g., with growth media), and the treated inoculum is allowed to grow out over a period of 24 hours. After the 24 hour growth period, an automated plate reader is used to measure inoculum growth, and the results are tabulated, relative to a control standard, which was not contacted with any active. Such testing therefore allows determination of which candidate actives provide for an inhibitory effect relative to a target microbe, as well as information relative to which candidate actives may be better than others.
Based on the results seen in FIG. 1, carvacrol was identified as a good candidate for further study. […] All tested samples included 1% SLS, with 0.5% of the shown co-surfactant, and 0.2% of the shown essential oil compound, with the results averaged over 3 contact times of 5, 15, and 30 minutes. […] For example, the amine oxide, sophorolipid, alkylpolyglycoside, and alcohol ethoxylate show such results, particularly in combination with carvacrol. For this reason, such surfactants may be avoided, in at least some embodiments of the present invention.
All tested samples included 1.5% SLS as the primary surfactant, with 1% of the shown essential oil compound, and 1% of the tested co-surfactant.
In particular, FIG. 5 plots change in T0 (ΔT0) compared to carvacrol as used alone (i.e. with no secondary essential oil compound).

[2] = system: Staphylococcus aureus; experiment: log reduction, EPA germicidal spray test (GST) / OECD quantitative method; type: cell-based; conditions: FIG. 7; 1% SLS, 0.5% second alkyl sulfate, 0.4% silicate buffer, 0.25% chelating agent, carvacrol 0.2% up to 1%; 3 and 5 minute contact times
Procedure: Tests were performed under standards promulgated by the EPA (e.g., the EPA's germicidal spray test “GST”) and the OECD (e.g., the Organization for Economic Co-Operation and Development). The OECD standards include an evaluation of the tested compositions ability to work in an environment where the target surface being cleaned includes soiling. The GST test is carried out according to the EPA's Standard Operating Procedure for Germicidal Spray Products as Disinfectants (GSPT): Testing of Staphylococcus aureus, Pseudomonas aeruginosa, and Salmonella enterica, published under SOP MB-06-09, which is herein incorporated by reference in its entirety. Such is available at https://www.epa.gov/sites/default/files/2018-01/documents/mb-06-09,pdf. The OECD test is carried out according to the EPA's Standard Operating Procedure for OECD Quantitative Method for Evaluating Bactericidal and Mycobactericidal Activity of Microbicides Used on Hard, Non-Porous Surfaces, published under SOP MB-25-05, which is herein incorporated by reference in its entirety. Such is available at https://www.epa.gov/sites/default/files/2019-05/documents/mb-25-05.pdf.

[3] = FIG. 2, 1% SLS, 0.5% co-surfactant, 0.2% essential oil compound, averaged over contact times of 5, 15 and 30 minutes

Cc1ccc(C(C)C)cc1O [carvacrol]
inhibitory effect (normalized T0, lower = increased inhibitory effect) ([1]; 1% SLS): best inhibitory effect | inhibitory effect (normalized T0) ([1]; FIG. 3, 1.5% SLS, 1% essential oil compound, 1% co-surfactant): lowest T0 values | log reduction against Staphylococcus aureus [2]: increased log reduction with increasing carvacrol concentration

Cc1ccc(C(C)C)c(O)c1 [thymol, reference compound]
inhibitory effect (normalized T0, lower = increased inhibitory effect) ([1]; 1% SLS): some inhibitory effect

alcohol ethoxylate
inhibitory effect (normalized T0) [1, 3]: opposite of an inhibitory effect

alkylpolyglycoside
inhibitory effect (normalized T0) [1, 3]: opposite of an inhibitory effect

sophorolipid
inhibitory effect (normalized T0) [1, 3]: opposite of an inhibitory effect
